Measurements: patent US20010044445A1, “AZOLE INHIBITORS OF CYTOKINE PRODUCTION” (priority 1999, published 2001)

Test system: Human peripheral blood mononuclear cells
Assay: Human Concanavalin-A Proliferation Assay (Con HU Assay)
Assay type: cell-based
Details: concanavalin-A stimulated human PBMC; for IC50: tritiated thymidine; for inhibition at 100 µM / inhibition at 1 µM: 72 h, read-out: % Inhibition of proliferation (at concentrations of 1,10, or 100 μm); for inhibition at 100 µM / % Inhibition of proliferation (at concentrations of 1,10, or 100 μm) / inhibition at 1 µM: 3 days
Description: Human peripheral blood mononuclear cells were cultured in RPMI 1640 medium supplemented with 10 μg/ml gentamicin, 50 μM 2-mercaptoethanol, 1X MEM non-essential amino acids (Sigma Chemical Co., St. Louis, Mo.), 100 U/ml sodium penicillin G, 100 μg/ml streptomycin sulfate, 2 mM L-glutamine, 1 mM sodium pyruvate (Life Technologies, Grand Island, N.Y.) and 10% fetal bovine serum (Hyclone, Logan, Utah) at 37° C. with 5% CO2.
The procedure in Current Protocols in Immunology, Volume 1, Published by the Greene Publishing Associates and John Wiley & Sons, Inc, Edited by Richard Coico, 1994, hereby incorporated by reference, was followed. Briefly, 50 ml of blood from human volunteers was collected in heparinized syringes and mixed. Blood was diluted 1:1 in Dulbecco's phosphate buffered saline (D-PBS) (Life Technologies, Grand Island, N.Y.) and mixed. PBS-blood mixture was overlaid into 50 ml centrifuge tubes containing 15 ml Histopaque 1077 (Sigma Chemical Co., St. Louis, Mo.) and centrifuged at 500 X G for 30 minutes at room temperature. Cells at the interface from each Histopaque tube were removed and mixed with 5 ml of D-PBS. Each cell suspension was diluted to 50 ml with D-PBS, mixed and centrifuged at 400 X G for 15 minutes at room temperature. After most of the supernatant was removed, cells were resuspended to 40 ml with D-PBS per tube (2 tubes per donor). Cells were centrifuged at 400 X G for 10 minutes at room temperature. Pellets were resuspended in 10 ml of supplemented RPMI 1640 and cell number determined with a Coulter counter. Cells were diluted to a concentration of 0.5×10^6 cells per mL.
The procedure in Current Protocols in Immunology, Volume 1, Published by the Greene Publishing Associates and John Wiley & Sons, Inc, Edited by Richard Coico, 1994, hereby incorporated by reference, was followed. Briefly, test compounds were added to appropriate wells on 96-well tissue culture plates (Corning Glass Works, Corning, N.Y.) in 20 µl of supplemented RPMI 1640. Human peripheral blood mononuclear cells were added to each well in 100 μl volumes (final cell concentration equal to 50,000 cells per well). After 15 minutes, 100 μl of 5 μg/ml concanavalin-A (Sigma Chemical Co., St. Louis, Mo.) in supplemented RPMI 1640 was added to a final concentration of 2.5 μg/ml. Plates were incubated for 3 days at 37° C. with 5% CO2. On day 3, plates were pulsed with 0.5 μCi/well tritiated thymidine (New England Nuclear, Boston, Mass.). After 6 hours, plates were harvested on a Tomatec 96-well havester (Orange, Conn.). Glass filter mats were counted on a Matrix 9600 direct beta counter (Packard, Meriden, Conn.).

[1] = Homo sapiens, PBMC, concentration 100 μm (in parentheses in the cell)
[2] = concentration 100 μm (in parentheses in the cell)
[3] = Homo sapiens, PBMC, concentration 1 μm (in parentheses in the cell)
[4] = concentration 1 μm (in parentheses in the cell)

Compound	IC50 (Homo sapiens, PBMC) [nM]	also measured
O=C(Nc1ccc(-n2nc(C(F)(F)F)cc2C(F)(F)F)nc1)c1ccccc1F [Example 292, N-(6-(3,5-bis(trifluoromethyl)-1H-pyrazol-1-yl)-3-pyridinyl)-2-fluorobenzamide]	258	
Cn1ccc(-c2cc(OC(F)F)n(-c3ccc(NC(=O)c4ccncc4F)cc3)n2)c1 [Example 358, N-(4-(5-(difluoromethoxy)-3-(1-methyl-1H-pyrrol-3-yl)-1H-pyrazol-1-yl)phenyl)-3-fluoroisonicotinamide]	203	
O=S(=O)(Nc1ccc(-n2nc(C(F)(F)F)cc2C(F)(F)F)cc1)c1cc(F)cc(F)c1 [Example 5, N-[4-[3,5-bis(trifluoromethyl)-1H-pyrazol-1-yl]phenyl]-3,5-difluorobenzenesulfonamide]	33700	inhibition at 100 µM [1]: 100%
Cc1nnsc1C(=O)Nc1ccc(-n2nc(-c3ccoc3)cc2Cl)cc1 [Example 355, N-(4-(5-chloro-3-(3-furyl)-1H-pyrazol-1-yl)phenyl)-4-methyl-1,2,3-thiadiazole-5-carboxamide]	282	
O=C(Nc1ccc(-n2nc(C(F)(F)F)cc2C(F)(F)F)cc1)C1C=CCCC1 (stereo not shown) [Example 53, N-[4-[3,5-bis(trifluoromethyl)-1H-pyrazol-1-yl]phenyl]-2-cyclohexane-1-carboxamide]		IC50: 202 nM; % Inhibition of proliferation (at concentrations of 1,10, or 100 μm) [2]: 99(100) %
O=C(Nc1ccccc1Br)c1ccc(-n2nc(C(F)(F)F)cc2C(F)(F)F)cc1 [Example 192, 4-[3,5-Bis(trifluoromethyl)-1H-pyrazol-1-yl]-N-(2-bromophenyl)benzamide]		inhibition at 1 µM [3]: 10%
O=C(Nc1ccc(-n2nc(C(F)(F)F)cc2Cl)cc1)c1cccnc1F [Example 325, N-(4-(5-chloro-3-(trifluoromethyl)-1H-pyrazol-1-yl)phenyl)-2-fluoronicotinamide]	172	
O=C(Nc1ccc(-n2nc(C(F)(F)F)cc2C(F)(F)F)cc1)c1cccc2ccccc12 [Example 66, N-[4-[3,5-bis(trifluoromethyl)-1H-pyrazol-1-yl]phenyl]-1-naphthylenecarboxamide]		IC50: 1040 nM; % Inhibition of proliferation (at concentrations of 1,10, or 100 μm) [2]: 97(100) %
Nc1cnccc1C(=O)Nc1ccc(-n2nc(C(F)(F)F)cc2C(F)(F)F)cc1 [Example 290, 3-amino-N-(4-(3,5-bis(trifluoromethyl)-1H-pyrazol-1-yl)phenyl)isonicotinamide]	373	
Cc1nnsc1C(=O)Nc1ccc(-n2nc(-c3nccs3)cc2C(F)(F)F)cc1 [Example 342, 4-methyl-N-(4-(3-(1,3-thiazol-2-yl)-5-(trifluoromethyl)-1H-pyrazol-1-yl)phenyl)-1,2,3-thiadiazole-5-carboxamide]	238	
O=C(Nc1ccc(-n2nc(C(F)(F)F)cc2C(F)(F)F)cc1)c1sccc1Br [Example 161, N-[4-[3,5-bis(trifluoromethyl)-1H-pyrazol-1-yl]phenyl]-3-bromo-2-thiophenecarboxamide]	231	inhibition at 100 µM [1]: 99%
CSc1cc(C(F)(F)F)nn1-c1ccc(NC(=O)c2ccccc2F)cc1 [Example 309, 2-fluoro-N-(4-(5-(methylsulfanyl)-3-(trifluoromethyl)-1H-pyrazol-1-yl)phenyl)benzamide]	32	
Cc1nnsc1C(=O)Nc1ccc(-n2nc(-c3cccnc3)cc2C#N)cc1 [Example 331, N-(4-(5-cyano-3-(3-pyridinyl)-1H-pyrazol-1-yl)phenyl)-4-methyl-1,2,3-thiadiazole-5-carboxamide]	220	
O=C(Nc1ccc(-n2nc(C(F)(F)F)cc2C(F)(F)F)cc1)c1cccc(Br)c1 [Example 144, N-[4-[3,5-bis(trifluoromethyl)-1H-pyrazol-1-yl]phenyl]-3-bromobenzamide]	240	inhibition at 100 µM [1]: 100%
N-(4-(5-acetyl-3-(trifluoromethyl)-1H-pyrazol-1-yl)phenyl)-2-fluorobenzamide [Example 305]		IC50: 170 nM
Nc1cc(NC(=O)c2ccccc2F)ccc1-n1nc(C(F)(F)F)cc1C(F)(F)F [Example 298, N-{3-amino-4-[3,5-bis(trifluoromethyl)-1H-pyrazol-1-yl]phenyl}-2-fluorobenzamide]	332	
Cc1ccc([N+](=O)[O-])cc1NC(=O)Nc1ccc(-n2nc(C(F)(F)F)cc2C(F)(F)F)cc1 [Example 50]		% Inhibition of proliferation (at concentrations of 1,10, or 100 μm) [4]: 2(1) %
CC1CCC(C(=O)Nc2ccc(-n3nc(C(F)(F)F)cc3C(F)(F)F)cc2)CC1 (stereo not shown) [Example 54, N-[4-[3,5-bis(trifluoromethyl)-1H-pyrazol-1-yl]phenyl]-4-methylcyclohexanecarboxamide]		inhibition at 1 µM [3]: 12%
O=C(CCCNC(=O)OCc1ccccc1)Nc1ccc(-n2nc(C(F)(F)F)cc2C(F)(F)F)cc1 [Example 158]		% Inhibition of proliferation (at concentrations of 1,10, or 100 μm) [4]: 30(1) %
O=C(Nc1ccc(-n2nc(C(F)(F)F)cc2C(F)(F)F)cc1)c1cc([N+](=O)[O-])c(Cl)c([N+](=O)[O-])c1Cl [Example 233, N-4-[3,5-bis(trifluoromethyl)-1H-pyrazol-1-yl]phenyl-2,4-dichloro-3,5-dinitrobenzamide]		IC50: 340 nM; % Inhibition of proliferation (at concentrations of 1,10, or 100 μm) (concentration 10 μm (in parentheses in the cell)): 100(10) %
O=C(Nc1ccc(-n2nc(C(F)(F)F)cc2Br)cc1)c1ccncc1F [Example 332, N-(4-(5-bromo-3-(trifluoromethyl)-1H-pyrazol-1-yl)phenyl)-3-fluoroisonicotinamide]	44	
O=C(Nc1ccc(-n2nc(C(F)(F)F)cc2-c2ccco2)cc1)c1ccccc1F [Example 301, 2-fluoro-N-(4-(5-(2-furyl)-3-(trifluoromethyl)-1H-pyrazol-1-yl)phenyl)benzamide]	232	
CCCCCCCc1ccc(C(=O)Nc2ccc(-n3nc(C(F)(F)F)cc3C(F)(F)F)cc2)cc1 [Example 111, N-[4-[3,5-bis(trifluoromethyl)-1H-pyrazol-1-yl]phenyl]-4-heptybenzamide]		IC50: 41000 nM; % Inhibition of proliferation (at concentrations of 1,10, or 100 μm) [2]: 76(100) %
O=C(Nc1ccc(-n2nc(-c3ccncc3)cc2C(F)(F)F)cc1)c1ccncc1F [Example 318, 3-fluoro-N-(4-(3-(4-pyridinyl)-5-(trifluoromethyl)-1H-pyrazol-1-yl)phenyl)isonicotinamide]	258	
CCOc1cc(C(F)(F)F)nn1-c1ccc(NC(=O)c2cccnc2F)cc1 [Example 319, N-(4-(5-ethoxy-3-(trifluoromethyl)-1H-pyrazol-1-yl)phenyl)-2-fluoronicotinamide]	219	
Cc1nc(C)c(-c2cc(C(F)(F)F)n(-c3ccc(NC(=O)c4ccncc4F)cc3)n2)s1 [Example 343, N-(4-(3-(2,4-dimethyl-1,3-thiazol-5-yl)-5-(trifluoromethyl)-1H-pyrazol-1-yl)phenyl)-3-fluoroisonicotinamide]	250	
Fc1ccc(NCc2ccc(-n3nc(C(F)(F)F)cc3C(F)(F)F)cc2)c(F)c1 [Example 108, 4-[3,5-bis(trifluoromethyl)-1H-pyrazol-1-yl]-N-(2,4-difluorophenyl)benzenemethanamine]		inhibition at 1 µM [3]: 18%
O=C(Nc1ccc(-n2nc(C(F)(F)F)cc2C(F)(F)F)cn1)c1ccccc1F [Example 297, N-(5-(3,5-bis(trifluoromethyl)-1H-pyrazol-1-yl)-2-pyridinyl)-2-fluorobenzamide]	251	
O=C(Nc1ccc(-n2nc(-c3nccs3)cc2Cl)cc1)c1ccncc1F [Example 347, N-(4-(5-chloro-3-(1,3-thiazol-2-yl)-1H-pyrazol-1-yl)phenyl)-3-fluoroisonicotinamide]	288	
Cn1ccc(-c2cc(C(F)(F)F)nn2-c2ccc(NC(=O)c3ccncc3F)cc2)c1 [Example 344, 3-fluoro-N-(4-(5-(1-methyl-1H-pyrrol-3-yl)-3-(trifluoromethyl)-1H-pyrazol-1-yl)phenyl)isonicotinamide]	251	
